Assay results published in patent US8992982B2, “Formulation of indomethacin” (Iceutica Pty Ltd., priority 2009, dated 2015).

What was measured:
Assay type in all cases: in vivo, human
[1] = system: pain after surgical removal of impacted third molars; experiment: Phase 2 dental pain study: 2-stopwatch method (time to onset of analgesia, first perceptible and meaningful pain relief); details: ITT
Experimental: (§1) Subjects assessed their baseline pain intensity (VAS) before receiving study drug (predose, Time 0) and their pain intensity (VAS) and pain relief (5-point categorical scale) at 15, 30, and 45 minutes and 1, 1.5, 2, 3, 4, 5, 6, 7, and 8 hours after Time 0 and immediately before the first dose of rescue medication. The 2-stopwatch method was used to record the time to perceptible and time to meaningful pain relief, respectively. Acetaminophen (1000 mg) was permitted as the initial rescue medication. Subjects were encouraged to wait at least 60 minutes after receiving study drug before taking rescue medication. […] Other restrictions included the following: no alcohol use from 24 hours before surgery until discharge on Day 1; nothing by mouth (NPO) from midnight before surgery until 1 hour after surgery; clear liquids only from 1 hour after surgery until 1 hour after dosing; and advancement of diet 1 hour after dosing according to standard practice.
(§2) The secondary efficacy endpoints were as follows: • TOTPAR over 0 to 4 hours (TOTPAR-4) after Time 0 • Visual Analogue Scale (VAS) pain intensity difference (VASPID) at each scheduled time point after Time 0 • Time to onset of analgesia (measured as time to perceptible pain relief confirmed by meaningful pain relief) • VAS pain intensity score at each scheduled time point • VAS summed pain intensity difference (VASSPID) over 0 to 4 hours (VASSPID-4) and over 0 to 8 hours (VASSPID-8) after Time 0 • Pain relief score at each scheduled time point after Time 0 • Peak pain relief • Time to peak pain relief • Time to first perceptible pain relief • Time to meaningful pain relief • Proportion of subjects using rescue medication • Time to first use of rescue medication (duration of analgesia) • Patient's global evaluation of study drug Safety:
(§3) For each time-to-event endpoint, the Kaplan-Meier method was used to evaluate the treatment effect. Time to onset of analgesia (measured as time to perceptible pain relief confirmed by meaningful pain relief) was based on data collected using the 2-stopwatch method. […] A summary table provided the number of subjects analyzed, the number of subjects censored, estimates for the quartiles, and 95% confidence intervals (CIs) for the estimated median. P values from log-rank tests were also used to examine treatment effect. Cox proportional hazard models were used to explore potential covariates such as sex, baseline pain intensity, and surgical trauma rating, if appropriate.

[2] = system: pain after surgical removal of impacted third molars; experiment: Phase 2 dental pain study: use of rescue medication (proportion of subjects, time to first use); details: 400 mg
Experimental: as §1, §2, §3
For the proportion of subjects using rescue medication, a logistic regression model that adjusted for baseline pain intensity was used to evaluate the treatment effect. Subgroup analysis by sex was performed if sex was confirmed to be a statistically significant covariate for TOTPAR-8. Baseline values were defined as the last measurements taken before dosing with a study drug.

[3] = Phase 2 dental pain study: safety (TEAEs, vital signs); details: Safety population
Experimental: Efficacy was assessed during the 8 hours after Time 0. Safety was assessed by the incidence of treatment-emergent AEs (TEAEs) and changes in vital sign measurements.
The safety endpoints were the incidence of TEAEs and changes in vital sign measurements.
Protocol-specified safety data were provided in by-subject listings. The Medical Dictionary for Regulatory Activities (MedDRA) (version 11.0) was used to classify all AEs with respect to system organ class and preferred term. Adverse event summaries included only TEAEs, which were summarized by incidence, severity, and relationship to study drug for each treatment group. The Cochran-Mantel-Haenszel test was used to compare the rates of occurrence between the placebo and Indomethacin Nanoformulation Capsule groups for all TEAEs. A list of AEs leading to study discontinuation, along with the summaries described above, was also provided.
Vital sign measurements were summarized using descriptive statistics (mean, standard deviation [SD], median, minimum, and maximum) at each scheduled time point for each treatment group. Changes from Baseline for vital signs were calculated for each subject and summarized for each treatment group at each scheduled time point after Baseline. No formal statistical tests were performed.

Cc1ccc(-c2cc(C(F)(F)F)nn2-c2ccc(S(N)(=O)=O)cc2)cc1 [Celecoxib]
Hazard ratio vs placebo, Cox proportional hazards model (time to first perceptible pain relief) ([1]; 400 mg): 1.7
Hazard ratio vs placebo, Cox proportional hazards model (time to meaningful pain relief) ([1]; 400 mg): 3.2
Time to first perceptible pain relief: subjects analyzed, % ([1]; 400 mg): (92.2) %
Time to first perceptible pain relief: subjects censored, % ([1]; 400 mg): (7.8) %
Time to meaningful pain relief: subjects analyzed, % ([1]; 400 mg): (68.6) %
Time to meaningful pain relief: subjects analyzed, n ([1]; 400 mg): 35
Time to meaningful pain relief: subjects censored, % ([1]; 400 mg): (31.4) %
Time to meaningful pain relief: subjects censored, n ([1]; 400 mg): 16
Time to onset of analgesia, Hazard ratio ([1]; Cox proportional hazards model, vs placebo): 4.4
Time to onset of analgesia: subjects analyzed [1]: (68.6) %
Time to first perceptible pain relief, Mean ([1]; Kaplan-Meier estimate, 400 mg): 0.9 h
Time to first perceptible pain relief, Q25 ([1]; Kaplan-Meier estimate, 400 mg): 0.35 h
Time to first perceptible pain relief, Q50 ([1]; Kaplan-Meier estimate, 400 mg): 0.60 h
Time to first perceptible pain relief, Q75 ([1]; Kaplan-Meier estimate, 400 mg): 0.97 h
Time to meaningful pain relief, Mean ([1]; Kaplan-Meier estimate, 400 mg): 2.6 h
Time to meaningful pain relief, Q25 ([1]; Kaplan-Meier estimate, 400 mg): 0.75 h
Time to meaningful pain relief, Q50 ([1]; Kaplan-Meier estimate, 400 mg): 1.33 h
Time to meaningful pain relief, Q75 ([1]; Kaplan-Meier estimate, 400 mg): 4.27 h
Time to onset of analgesia, Mean ([1]; Kaplan-Meier estimate): 0.9 h
Time to onset of analgesia, Q25 ([1]; Kaplan-Meier estimate): 0.38 h
Time to onset of analgesia, Q50 ([1]; Kaplan-Meier estimate): 0.72 h
Time to onset of analgesia: subjects censored ([1]; right-censored at 8 hours): (31.4) %
Hazard ratio vs placebo, Cox proportional hazards model (time to first use of rescue medication) [2]: 0.2
Time to first use of rescue medication: subjects analyzed, % [2]: (41.2) %
Time to first use of rescue medication: subjects censored, % [2]: (58.8) %
Time to first use of rescue medication, Mean ([2]; Kaplan-Meier estimate): 4.7 h
Time to first use of rescue medication, Q25 ([2]; Kaplan-Meier estimate): 3.30 h
Subjects with ≧1 severe TEAE [3]: (5.9) %
Subjects with ≧1 treatment-related TEAE [3]: (2.0) %
Subjects who died ([3]; n): 0
Subjects who discontinued due to a TEAE ([3]; n): 0
Subjects with ≧1 SAE ([3]; n): 0
